Laboratory results taken from ChEMBL document CHEMBL1159133, “A cembranolide diterpene farnesyl protein transferase inhibitor from the marine soft coral Lobophytum cristagalli” (Bioorg Med Chem Lett, 1996).

Legend:
[1] = target: T1, Protein farnesyltransferase (Homo sapiens, UniProt P49354+P49356); assay: Kinetic parameter for inhibition of farnesyl protein transferase; type: protein-complex assay
[2] = target: T1, Protein farnesyltransferase; assay: Inhibition of recombinant human farnesyl protein transferase; type: protein-complex assay
[3] = target: Geranylgeranyl transferase type I (Homo sapiens, UniProt P49354+P53609); assay: Inhibitory activity against recombinant human Geranylgeranyl transferase type I; type: protein-complex assay
[4] = target: T1, Protein farnesyltransferase; assay: Percent inhibition of H-Ras processing in COS cells at 5.3 uM; type: cell-based

SMILES: C=C1C(=O)O[C@H]2[C@H]1[C@@H](OC(C)=O)C/C(C)=C/CC/C(C)=C/CC[C@@]1(C)O[C@H]21
- Ki [1]: 170 nM
- IC50 [2]: 150 nM
- IC50 [3]: 5300 nM
- inhibition [4]: 26%
